Assay results from paper PMC10403511, “DNA-encoded chemical libraries yield non-covalent and non-peptidic SARS-CoV-2 main protease inhibitors” (Communications Chemistry, 2023).
Where two headings read alike, the source gives them in different places.

Key:
SARS-CoV-2 M^pro = molecular target: T1, SARS-CoV-2 M^pro (Severe acute respiratory syndrome coronavirus 2, UniProt P0DTD1); experiment: M^pro enzyme inhibition assay, proteolytic cleavage of fluorescent peptide reporter, Ki by Morrison equation; format: biochemical
T1 construct: the gene for M^pro (ORF1ab residues 3264 to 3569, GenBank code: MN908947.3); Sumo fusion with M^pro cleavage site (SAVLQ↓SGFRK) (N, cleaved yes); 6xHis-tag behind PreScission site (SGVTFQ↓GP) (C); made in house; host or cells: E. coli BL21(DE3)
Text: Hydrolysis of the fluorescent peptide was monitored at an emission wavelength of 460 nm with an excitation wavelength of 360 nm using a TECAN M200 plate reader. Initial hydrolysis rates of fluorescent peptide were plotted as a function of compound concentrations, and Ki values were obtained by fitting the data into the Morrison equation[32] with SE from triplicates.
inhibitors. […] The remaining activities (red dots) of Mpro towards fluorescent
peptide we re plotted as a function of compound concentrations and Ki values wa s calculated by fitting the da ta int o Morrison equation wit h standard error f romS6 […]

cathepsin B = molecular target: T2, cathepsin B (Homo sapiens, UniProt P07858); experiment: Human protease off-target assay, commercial kit; format: biochemical; conditions: 10 µM compound
T2 construct: purchased BPS Bioscience 79590
Description: (§1) These assays were done exactly as we described earlier. In brief, commercial kits were used for all four human proteases as follows: Cathepsin B (BPS Bioscience, #79590), Renin (BPS Bioscience, #80211), Thrombin (Sigma-Aldrich, #MAK243), and MMP-1 (Biovision, #K794-100). All assays were run in kinetic mode and at RT, except MMP-1, which was run at 37 °C. Positive controls were used for all assays, i.e., E64 for Cathepsin B, Aliskiren for Renin, CDD-1472 for Thrombin, and GM 6001 for MMP-1. Activities were obtained from linear initial progress curves, and fractional activities were calculated from reactions with no inhibitors[17],[19],[34].
(§2) Supplementary Figure 4. Potential off-target inhibition of major proteases, i.e. thrombin (a serine protease), cathepsin B (a cysteine protease like Mpro), renin (an
(§3) control inhibitors as indicated. S9 […]

[1] = molecular target: T3, matrix metallopeptidase-1 (MMP-1) (Homo sapiens, UniProt P03956); experiment: Human protease off-target assay, commercial kit; format: biochemical; conditions: 10 µM compound, 37 °C
T3 construct: purchased Biovision K794-100
T3 sequence (P03956 100-469): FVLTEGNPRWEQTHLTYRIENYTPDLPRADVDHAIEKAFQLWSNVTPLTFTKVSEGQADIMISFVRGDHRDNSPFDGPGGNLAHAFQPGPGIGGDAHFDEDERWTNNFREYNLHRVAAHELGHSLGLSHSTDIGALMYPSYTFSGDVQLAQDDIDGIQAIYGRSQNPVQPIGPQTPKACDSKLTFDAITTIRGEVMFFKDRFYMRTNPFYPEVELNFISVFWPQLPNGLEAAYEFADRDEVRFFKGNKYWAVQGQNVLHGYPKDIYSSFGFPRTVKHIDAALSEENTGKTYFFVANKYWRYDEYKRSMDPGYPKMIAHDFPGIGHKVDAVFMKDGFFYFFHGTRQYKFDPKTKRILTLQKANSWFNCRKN
Description: as §1, §2, §3

renin = molecular target: T4, renin (Homo sapiens, UniProt P00797); experiment: Human protease off-target assay, commercial kit; format: biochemical; conditions: 11.1 µM compound
T4 construct: purchased BPS Bioscience 80211
T4 sequence (P00797 67-406): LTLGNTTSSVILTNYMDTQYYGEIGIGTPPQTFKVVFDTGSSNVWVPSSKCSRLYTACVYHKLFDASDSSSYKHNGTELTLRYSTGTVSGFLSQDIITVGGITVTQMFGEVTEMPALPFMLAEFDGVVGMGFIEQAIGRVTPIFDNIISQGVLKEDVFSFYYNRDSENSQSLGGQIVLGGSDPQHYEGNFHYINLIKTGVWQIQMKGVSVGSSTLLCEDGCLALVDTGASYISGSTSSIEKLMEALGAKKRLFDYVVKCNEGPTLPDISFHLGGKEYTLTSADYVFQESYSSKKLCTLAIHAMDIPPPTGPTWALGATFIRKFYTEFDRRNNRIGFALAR
Description: as §1, §2, §3

thrombin = molecular target: T5, thrombin (Homo sapiens, UniProt P00734); experiment: Human protease off-target assay, commercial kit; format: biochemical; conditions: 10 µM compound
T5 construct: purchased Sigma-Aldrich MAK243
Description: as §1, §2, §3

[2] = format: in vitro ADME, human; conditions: human, plasma, 2 h, 10 μM
Description: (§4) At time points of 0, 30, 60, and 120 min, 15 μL of the samples were taken out, and the reactions were terminated by adding 75 μL of ice-cold methanol. The reaction mixtures were then vortexed for 30 s and centrifuged at 15,000 rcf for 15 min. […] The percentage of test compound remaining at the individual time points was normalized by the 0-min.
(§5) 10 µM in duplicate (n=2) at 37 °C. The reactions were terminated at time points of 0, 30, 60 and 120 min by adding ice-cold methanol. Following centrifugation, the supernatant was analyzed using UHPLC-Q E xa ct ive Orbitrap MS. The percentage of test compound remaining at the individual time points relative to the 0 min sample was determined S12

[3] = format: in vitro ADME, mouse; conditions: mouse, plasma, 2 h, 10 μM
Description: as §4, §5

in vivo = conditions: 50 mg/kg; for half-life: plasma
Description: The whole blood samples were centrifuged at rcf 2000 for 5 min for the plasma separation of plasma. The plasma samples were stored at −80 °C before analysis. All the samples were analyzed with a Q Exactive orbitrap MS coupled with UHPLC (Thermo Fisher Scientific, San Jose, CA). LC-Q Exactive MS was operated in the same parameters used in the cell uptake assay above. The concentration of these compounds in plasma was quantified using individual calibration curves.
PK parameters such as half-time (T1/2), area under the plasma concentration–time curve during the period of observation (AUC0–t), area under the plasma concentration–time curve from zero to infinity (AUC0–∞), clearance normalized by the bioavailability (CL/F), and the mean residence time (MRT) were calculated by WinNonlin software (Certara, Princeton, NJ) by noncompartmental analysis. The plasma concentration–time curves were plotted in Prism 7 (GraphPad, San Diego, CA) as mean ± S.D.
Mouse PK of CDD compounds, 50 mg/kg
samples we re collected at 0, 5, 10, 15, 30 m in , 1, 2, 4, 6 and 8 h af ter dosing. P la sm a samples we re separated, prepared and analyzed wit h LC-MS. The compound
± SD (n=4). Tmax, time to rea ch the m a ximum pla sma concentration. Cm ax, maximum p las m a concentration. T1/2, half-lif e . AUC, area under the cu rve . CL, clea ran ce . F,
bioavailability. M R T, mean residence time.

HepG2 cells [4] = test system: HepG2 cells
HepG2 cells [5] = experiment: cells; conditions: Homo sapiens, HepG2, 24 h, read-out: IC50 (HepG2 cell viability)
in vitro = conditions: human
[6] = 25 nM Mpro with authentic termini (no His-tag), standard error from triplicates, Inactive: less than 50% inhibition with 25 µM compound, read-out: Mpro Ki
[7] = Fig. 2, Suppl. Fig. 1, construct not given, Inactive: inhibited M^pro activity by less than 90% with 25 μM, read-out: Ki

## CCC[C@H](NC(=O)c1cccc2nc(-c3cncc4ccccc34)n([C@H]3CC[C@H](C(=O)NC)C3)c12)c1ccc(C(F)(F)F)cc1 [CDD-1790]
SARS-CoV-2 M^pro; read-out: Ki
  Ki: 620 nM
SARS-CoV-2 M^pro; read-out: Mpro Ki
  Ki: 664 ± 66 nM

## CNC(=O)CCCn1c(-c2cncc3ccccc23)nc2cccc(C(=O)N[C@@H](C)c3ccc4ccccc4c3)c21 [CDD-1845]
Cathepsin B
  inhibition of enzymatic activity: None of these inhibitors blocked the enzymatic activity
[1]
  inhibition of enzymatic activity: None of these inhibitors blocked the enzymatic activity
renin
  inhibition of enzymatic activity: None of these inhibitors blocked the enzymatic activity
thrombin
  inhibition of enzymatic activity: None of these inhibitors blocked the enzymatic activity
[2]
  compound remaining in plasma: 80%
[3]
  compound remaining in plasma: 80%
In vivo; male, mouse, in vivo, po
  AUC(0-inf): 14.9 ± 7.85 µM·h
  AUC(0-t): 14.9 ± 7.79 µM·h
  Cmax: 8.93 ± 4.55 µM
  MRT inf: 1.25 ± 0.02 h
  MRT last: 1.22 ± 0.03 h
  Tmax: 0.33 ± 0.14 h
In vivo; male, mouse, oral
  half-life: 1.1 ± 0.3 h
In vivo; male, mouse, po
  half-life: 1.14 ± 0.32 h
In vivo; mice, per oral gavage (po.), n=4, mean ± SD
  CL/F: 4.02 ± 1.98 mg/ ( hr*µmol/L)/kg
HepG2 cells [4]
  cytotoxicity: no obvious cytotoxicity
HepG2 cells [5]
  IC50: > 100000 nM
In vitro
  viability at 24 h, 100 µM: > 80%

## CNC(=O)CCCn1c(-c2ccc3cnccc3c2)nc2cccc(C(=O)N[C@@H](C)c3ccc4ccccc4c3)c21 [CDD-1884]
SARS-CoV-2 M^pro
  Ki: inactive or exhibit greatly decreased potency
  Mpro Ki: Inactive
  Mpro-His Ki: Inactive

## CNC(=O)CCCn1c(-c2ccnc3ccccc23)nc2cccc(C(=O)N[C@@H](C)c3ccc4ccccc4c3)c21 [CDD-1906]
SARS-CoV-2 M^pro
  Mpro Ki: Inactive
  Mpro-His Ki: Inactive

## CNC(=O)CCCn1c(-c2ccc(N)nc2)nc2cccc(C(=O)N[C@@H](C)c3ccc4ccccc4c3)c21 [CDD-1926]
SARS-CoV-2 M^pro
  Ki: inactive or exhibit greatly decreased potency
  Mpro Ki: Inactive
  Mpro-His Ki: Inactive

## CNC(=O)[C@H]1C[C@H](n2c(-c3cncc4ccccc34)nc3cccc(C(=O)N[C@@H](C)c4ccc(C(F)(F)F)cc4)c32)C1 [CDD-1829]
SARS-CoV-2 M^pro; [6]
  Ki: 48 ± 5 nM
SARS-CoV-2 M^pro; [7]
  Ki: 46 nM

## CCC[C@H](NC(=O)c1cccc2nc(-c3cncc4ccccc34)n([C@H]3C[C@H](C(=O)NC)C3)c12)c1ccc(OC(F)F)cc1 [CDD-1780]
SARS-CoV-2 M^pro; [6]
  Ki: 16 ± 2 nM
SARS-CoV-2 M^pro; [7]
  Ki: 14 nM

## CCC[C@H](NC(=O)c1cccc2nc(-c3cncc4ccccc34)n(C3CCC3)c12)c1ccc(C(F)(F)F)cc1 [CDD-1806]
SARS-CoV-2 M^pro; Fig. 2, Suppl. Fig. 1, construct not given, Inactive: inhibited M^pro activity by less than 90% with 25 μM
  Ki: greatly reduces potency
SARS-CoV-2 M^pro; from Ki values
  decrease of activity compared to CDD-1733: more than 14 fold

## CCC[C@H](NC(=O)c1cccc2nc(-c3cncc4ccccc34)n(C3CCNCC3)c12)c1ccc(C(F)(F)F)cc1 [CDD-1818]
SARS-CoV-2 M^pro; read-out: Ki
  Ki: 1470 nM
SARS-CoV-2 M^pro; read-out: Mpro Ki
  Ki: 1710 ± 128 nM
